Measured values: patent US20060063784A1, “Method of using substituted pyrazolo [1,5-a] pyrimidines” (priority 2004, published 2006)
Read-outs that look alike come from different tables or passages of the source.

How the values were obtained:
[1] = system: 80S14 (p21-deficient) cells; experiment: Cytotoxicity assay using isogenic cell lines: IC50 in 80S14 (p21-deficient) cells, SRB; format: cell-based, human
Outline: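 80S14 (p21-deficient) cells seeded at 12,000 cells/well overnight, then exposed 5 days at 37 °C to serial dilutions (5 pM–50 μM or 170 pg/ml–10 μg/ml). TCA-fixed, sulforhodamine B-stained, absorbance at 560 nm; IC50 taken from cytotoxicity curves versus untreated controls.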

LoVo Colon cell line = experiment: Cytotoxicity assay using LoVo colon cell line, SRB; format: cell-based; settings: read-out: Inhibition of LoVo
Outline: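 LoVo cells (4000/well, RPMI 1640 with 10% FBS, 37 °C, 7% CO2) seeded overnight, then exposed 4 days to serial dilutions spanning 5 pM-20 μM or 170 pg/ml-10 μg/ml. Survival by SRB staining; IC50 from curves relative to untreated controls.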

[2] = Homo sapiens, 120 h, 80S14 (p21-deficient) cells, 5 days, SRB, class symbols, read-out: IC50 for 80S14
[3] = Homo sapiens, 96 h, Cellular activity in LoVo cell, 4 days incubation, SRB
[4] = 80S14 (p21-deficient) cells, 5 days, SRB, class symbols, read-out: IC50 for 80S14
[5] = Cellular activity in LoVo cell, 4 days incubation, SRB
[6] = Homo sapiens, 80S14, 120 h, read-out: IC50 for 80S14 (uM)
[7] = Homo sapiens, 120 h, 80S14 p21-deficient cells, 5 days incubation, SRB, read-out: IC50 for 80SI4
[8] = Homo sapiens, 96 h, LoVo colon cells, 4 days incubation, SRB

Row | Compound | IC50 [1, 2] | IC50 (LoVo Colon cell line; [3]) | other results
1 | CCN(CC)Cc1ccc(-c2cccc(-c3ccnc4c(C(=O)c5cccs5)cnn34)c2)cc1 [Example 462, (7-{4′-[(Diethylamino)methyl]-1,1′-biphenyl-3-yl}pyrazolo[1,5-a]pyrimidin-3-yl)(thien-2-yl)methanone] | 1 to 10 µM | 100 to 1000 nM | 
2 | tert-Butyl 4-[2-oxo-2-({3-[3-(thien-2-ylcarbonyl)pyrazolo[1.5-a]pyrimidin-7-yl]phenyl}amino)ethyl]piperidine-1-carboxylate [Example 392] |  |  | IC50 [1, 4]: < 1 µM; IC50 (LoVo Colon cell line; [5]): < 100 nM
3 | C=CCOC(=O)Nc1cccc(-c2ccnc3c(C(=O)c4cccs4)cnn23)c1 [Example 14, allyl 3-[3-(thien-2-ylcarbonyl)pyrazolo[1,5-a]pyrimidin-7-yl]phenylcarbamate] |  |  | IC50 ([1]; Homo sapiens, 80S14, 120 h, read-out: IC50 for 80SI4 (uM)): < 1 µM; IC50 (LoVo Colon cell line; Homo sapiens, LoVo, 96 h): < 100 nM
4 | CC(C)OC(=O)Nc1cc(-c2ccnc3c(C(=O)c4cccs4)cnn23)ccc1F [Example 347, Isopropyl 2-fluoro-5-[3-(thien-2-ylcarbonyl)pyrazolo[1,5-a]pyrimidin-7-yl]phenylcarbamate] |  |  | IC50 [1, 6]: < 1 µM; IC50 (LoVo Colon cell line; Homo sapiens, LoVo, 96 h): < 100 nM
5 | CN(C)c1cccc(-c2cccc(-c3ccnc4c(C(=O)c5cccs5)cnn34)c2)c1 [Example 453, {7-[3′-(Dimethylamino)-1,1′-biphenyl-3-yl]pyrazolo[1,5-a]pyrimidin-3-yl}(thien-2-yl)methanone] | 1 to 10 µM | 100 to 1000 nM | 
6 | N#CN=C(Nc1cccc(-c2ccnc3c(C(=O)c4cccs4)cnn23)c1)Oc1ccccc1 [Example 386, Phenyl N′-cyano-N-{3-[3-(thien-2-ylcarbonyl)pyrazolo[1,5-a]pyrimidin-7-yl]phenyl}imidocarbamate] | 1 to 10 µM | 1000 to 20000 nM | 
7 | O=C(c1cccs1)c1cnn2c(-c3cccc(NC(=O)C4CCCC4)c3)ccnc12 [Example 283, N-{3-[3-(2-Thienylcarbonyl)pyrazolo[1,5-a]pyrimidin-7-yl]phenyl}cyclopentanecarboxamide] | < 1 µM | < 100 nM | 
8 | O=C(Nc1cccc(-c2ccnc3c(C(=O)c4cccs4)cnn23)c1)c1ccccc1C(F)(F)F [Example 96, N-{3-[3-(thien-2-ylcarbonyl)pyrazolo[1,5-a]pyrimidin-7-yl]phenyl}-2-(trifluoromethyl)benzamide] |  |  | IC50 [1, 7]: < 1 µM; IC50 (LoVo Colon cell line; [8]): < 100 nM
9 | Cc1cc(-c2cccc(NC(=O)C3CC3)c2)n2ncc(C(=O)c3cccs3)c2n1 [Example 276, N-{3-[5-Methyl-3-(2-thienylcarbonyl)pyrazolo[1,5-a]pyrimidin-7-yl]phenyl}cyclopropanecarboxamide] | < 1 µM | < 100 nM | 
10 | C=C(CC)CNc1cccc(-c2ccnc3c(C(=O)c4cccs4)cnn23)c1 [Example 435, (7-{3-[(2-Ethylprop-2-enyl)amino]phenyl}pyrazolo[1,5-a]pyrimidin-3-yl)(thien-2-yl)methanone] | 1 to 10 µM | 100 to 1000 nM | 
11 | CC(C)CC(=O)Nc1cccc(-c2ccnc3c(-c4cccc(-c5ccccc5)c4)cnn23)c1 [Example 485, N-{3-[3-(1,1′-Biphenyl-3-yl)pyrazolo[1,5-a]pyrimidin-7-yl]phenyl}-3-methylbutanamide] | 10 to 50 µM | 1000 to 20000 nM | 
12 | CCOC(=S)Nc1cccc(-c2ccnc3c(C(=O)c4cccs4)cnn23)c1 [Example 332, O-Ethyl 3-[3-(thien-2-ylcarbonyl)pyrazolo[1,5-a]pyrimidin-7-yl]phenylthiocarbamate] | < 1 µM | < 100 nM | 
13 | CC(C)=CCNc1cccc(-c2ccnc3c(C(=O)c4cccs4)cnn23)c1 [Example 371, (7-{3-[(3-Methylbut-2-enyl)amino]phenyl}pyrazolo[1,5-a]pyrimidin-3-yl)(thien-2-yl)methanone] | < 1 µM | < 100 nM | 
14 | C=CCCOC(=O)Nc1cccc(-c2cc(C)nc3c(C(=O)c4cccs4)cnn23)c1 [Example 199, but-3-enyl 3-[5-methyl-3-(thien-2-ylcarbonyl)pyrazolo[1,5-a]pyrimidin-7-yl]phenylcarbamate] |  |  | IC50 [1, 7]: < 1 µM; IC50 (LoVo Colon cell line; [8]): < 100 nM
15 | O=C(Nc1cccc(-c2ccnc3c(C(=O)c4cccs4)cnn23)c1)OCC1CCC1 [Example 174, cyclobutylmethyl 3-[3-(thien-2-ylcarbonyl)pyrazolo[1,5-a]pyrimidin-7-yl]phenylcarbamate] |  |  | IC50 [1, 7]: < 1 µM; IC50 (LoVo Colon cell line; [8]): < 100 nM
16 | CN(C)Cc1ccc(-c2cccc(-c3ccnc4c(C(=O)c5cccs5)cnn34)c2)cc1 [Example 463, (7-{4′-[(Dimethylamino)methyl]-1,1′-biphenyl-3-yl}pyrazolo[1,5-a]pyrimidin-3-yl)(thien-2-yl)methanone] | < 1 µM | < 100 nM | 

Row | Compound | IC50 [1, 2] | IC50 (LoVo Colon cell line; [3]) | other results
17 | O=C(c1cccs1)c1cnn2c(-c3ccc(F)c(N(C(=O)OCC(Cl)(Cl)Cl)C(=O)OCC(Cl)(Cl)Cl)c3)ccnc12 [Example 357, bis(2,2,2-Trichloroethyl) 2-fluoro-5-[3-(thien-2-ylcarbonyl)pyrazolo[1,5-a]pyrimidin-7-yl]phenylimidodicarbonate] | < 1 µM | < 100 nM | 
18 | CC(C)CC(=O)Nc1cccc(-c2ccnc3c(-c4cccc(CN5CCOCC5)c4)cnn23)c1 [Example 488, 3-Methyl-N-(3-{3-[3-(morpholin-4-ylmethyl)phenyl]pyrazolo[1,5-a]pyrimidin-7-yl}phenyl)butanamide] | 10 to 50 µM | 1000 to 20000 nM | 
19 | CC(C)NC(=O)Nc1ccc(-c2ccnc3c(C(=O)c4cccs4)cnn23)s1 [Example 329, N-Isopropyl-N′-{5-[3-(thien-2-ylcarbonyl)pyrazolo[1,5-a]pyrimidin-7-yl]thien-2-yl}urea] | 1 to 10 µM | 100 to 1000 nM | 
20 | O=C(CC1CC1)Nc1cccc(-c2ccnc3c(C(=O)c4cccs4)cnn23)c1 [Example 72, 2-cyclopropyl-N-{3-[3-(thien-2-ylcarbonyl)pyrazolo[1,5-a]pyrimidin-7-yl]phenyl}acetamide] |  |  | IC50 [1, 7]: < 1 µM; IC50 (LoVo Colon cell line; [8]): 100 to 1000 nM
21 | O=C(CC1CCCCC1)Nc1cccc(-c2ccnc3c(C(=O)c4cccs4)cnn23)c1 [Example 74, 2-cyclohexyl-N-{3-[3-(thien-2-ylcarbonyl)pyrazolo[1,5-a]pyrimidin-7-yl]phenyl}acetamide] |  |  | IC50 [1, 7]: < 1 µM; IC50 (LoVo Colon cell line; [8]): < 100 nM
22 | O=C(c1cccs1)c1cnn2c(-c3cccc(N(C(=O)c4c(Cl)cccc4Cl)C(=O)c4c(Cl)cccc4Cl)c3)ccnc12 [Example 391, 2,6-Dichloro-N-(2,6-dichlorobenzoyl)-N-{3-[3-(thien-2-ylcarbonyl)pyrazolo[1,5-a]pyrimidin-7-yl]phenyl}benzamide] | 10 to 50 µM | 1000 to 20000 nM | 
23 | CC(C)C(=O)Nc1cccc(-c2ccnc3c(C(=O)c4cccs4)cnn23)c1 [Example 273, 2-Methyl-N-{3-[3-(2-thienylcarbonyl)pyrazolo[1,5-a]pyrimidin-7-yl]phenyl}propanamide] |  |  | IC50 [1, 6]: < 1 µM; IC50 (LoVo Colon cell line; Homo sapiens, LoVo, 96 h): 100 to 1000 nM
24 | O=C(Nc1cccc(-c2ccnc3c(C(=O)c4cccs4)cnn23)c1)c1ccc(-n2cccc2)cc1 [Example 383, 4-(1H-pyrrol-1-yl)-N-{3-[3-(thien-2-ylcarbonyl)pyrazolo[1,5-a]pyrimidin-7-yl]phenyl}benzamide] | 1 to 10 µM | 100 to 1000 nM | 
25 | Cc1cc(C)cc(-c2cnn3c(-c4cccc(-c5nnn(CC6CCC6)n5)c4)ccnc23)c1 [Example 492, 7-{3-[2-(Cyclobutylmethyl)-2H-tetraazol-5-yl]phenyl}-3-(3,5-dimethylphenyl)pyrazolo[1,5-a]pyrimidine] | 1 to 10 µM | 100 to 1000 nM | 
26 | COc1cc(-c2cnn3c(-c4cccc(NC(=O)CC(C)C)c4)ccnc23)cc(OC)c1OC [Example 467, 3-Methyl-N-{3-[3-(3,4,5-trimethoxyphenyl)pyrazolo[1,5-a]pyrimidin-7-yl]phenyl}butanamide] | < 1 µM | < 100 nM | 
27 | CC(CC(=O)O)CC(=O)Nc1cccc(-c2ccnc3c(C(=O)c4cccs4)cnn23)c1 (centres unmarked) [Example 445, 3-Methyl-5-oxo-5-({3-[3-(thien-2-ylcarbonyl)pyrazolo[1,5-a]pyrimidin-7-yl]phenyl}amino)pentanoic acid] | 10 to 50 µM | 1000 to 20000 nM | 
28 | O=C(c1cccs1)c1cnn2c(-c3cccc(-c4ccn(Cc5ccccn5)n4)c3)ccnc12 [Example 517, (7-{3-[1-(Pyridin-2-ylmethyl)-1H-pyrazol-3-yl]phenyl}pyrazolo[1,5-a]pyrimidin-3-yl)(thien-2-yl)methanone] | < 1 µM | 100 to 1000 nM | 
29 | CC(C)CC(=O)Nc1cc(-c2ccnc3c(C(=O)c4cccs4)cnn23)cs1 [Example 351, 3-Methyl-N-{4-[3-(thien-2-ylcarbonyl)pyrazolo[1,5-a]pyrimidin-7-yl]thien-2-yl}butanamide] | 1 to 10 µM | 1000 to 20000 nM | 
30 | Cc1cc(C)cc(-c2cnn3c(-c4cccc(-c5nnn(CCN6CCOCC6)n5)c4)ccnc23)c1 [Example 493, 3-(3,5-Dimethylphenyl)-7-{3-[2-(2-morpholin-4-ylethyl)72H-tetraazol-5-yl]phenyl}pyrazolo[1,5-a]pyrimidine] |  |  | IC50 [1, 4]: 1 to 10 µM; IC50 (LoVo Colon cell line; [5]): 100 to 1000 nM
31 | CCc1ccc(-c2cccc(-c3ccnc4c(C(=O)c5cccs5)cnn34)c2)cc1 [Example 456, [7-(4′-Ethyl-1,1′-biphenyl-3-yl)pyrazolo[1,5-a]pyrimidin-3-yl](thien-2-yl)methanone] | < 1 µM | < 100 nM | 
